Test results from paper PMC4868691, “β-catenin nuclear translocation in colorectal cancer cells is suppressed by PDE10A inhibition, cGMP elevation, and activation of PKG” (Oncotarget, 2015).
pIC50: −log10 of the molar value. Where two headings read alike, the source gives them in different places. One block for each compound: values may come before it.

Assays:
colon tumor cell = assay: Colon tumor cell growth, rolipram; type: cell-based; conditions: concentrations up to 100 μM, data not shown
HT-29 cells [1] = assay: Kinase inhibitor pretreatment, VASP phosphorylation after Pf-2545920 stimulation; type: cell-based, human
Method: (§1) C. […] They are assigned to Pf-2545920 because the x-axis label names it as the compound given in dose-response.
(§2) Cell lysates were separated by SDS-PAGE using 12% polyacrylamide gel, 7.5% for PDE10 protein analysis, followed by electrophoretic transfer to nitrocellulose membranes. The membranes were then blocked at room temperature on an orbital shaker for 1 hour in a solution of 5% non-fat dry milk in TBS with 0.1% Tween 20 (TBS-T). Membranes were then incubated overnight at 4 degrees on an orbital shaker with appropriate primary antibodies. Membranes were then washed three times with TBS-T before addition of appropriate secondary antibodies, and incubated at room temperature for 1 hour on an orbital shaker. Membranes were washed and developed using SuperSignal West Enhanced Chemiluminescence Reagent (Pierce).

HT-29 cells [2] = assay: PARP cleavage by Western blot; type: cell-based, human; conditions: HT-29, 0.1 μM KT 5823 for 30 minutes before Pf-2545920 at 5 μM and 10 μM for 6 hours
Method: as §2

HT-29 cells [3] = assay: Growth inhibition with or without H89 pretreatment (CellTiter-Glo); type: cell-based, human; conditions: for pIC50: Homo sapiens
Method: as §1
(§3) Growth Assays were performed by seeding 5,000 cells per well in a 96-well microtiter plate, or 2,500 cells per well in half-area 96-well microtiter plates. Cells were allowed to settle onto the bottom of the plate before being dosed with compounds in dose-response for 72 hours at 37°C in a humidified incubator containing 5% CO2. After incubation, growth inhibitory activity was assayed using the Cell Titer Glo Assay (Promega) according to manufacturer's recommendations.

SW620 = assay: Growth inhibition assay (Cell Titer Glo), SW620; type: cell-based; conditions: Homo sapiens, SW-620; SW620, 72 hours
Method: as §3

HCC-2998 = assay: Growth inhibition assay (Cell Titer Glo), HCC-2998; type: cell-based; conditions: Homo sapiens; HCC-2998, 72 hours
Method: as §3

HCT-116 [4] = assay: Intracellular cAMP levels; type: cell-based, human; conditions: HCT-116, concentration-dependent
HCT116 = assay: Growth inhibition assay (Cell Titer Glo), HCT116; type: cell-based; conditions: Homo sapiens, HCT-116; HCT116, 72 hours
Method: as §3

PDE3B = PDE3B (Homo sapiens, UniProt Q13370); assay: Phosphodiesterase isozyme specificity, PDE3B; type: biochemical; conditions: @ 10 μM
PDE1A = PDE1A (Homo sapiens, UniProt P54750); assay: Phosphodiesterase isozyme specificity, PDE1A; type: biochemical; conditions: @ 10 μM
[5] = tested on: HCT-116 colon tumor cells; assay: VASP/CREB phosphorylation by Western blot (PKG and PKA activation); type: cell-based, human
Method: as §2

COLO-205 = assay: Growth inhibition assay (Cell Titer Glo), COLO-205; type: cell-based; conditions: Homo sapiens; COLO-205, 72 hours
Method: as §3

HT-29 colon tumor cells = assay: Fluorescent cytotoxicity assay (CellTox Green); type: cell-based, human; conditions: dose response over time
Method: Cells were plated in 96-well microtiter plates at a […] of 5,000 cells per well and treated with compound or vehicle control at the doses and times indicated. Cytotoxicity was measured using CellTox Green Cytotoxicity Assay (Promega) according to the manufacturer's recommendations.

HCT-15 = assay: Growth inhibition assay (Cell Titer Glo), HCT-15; type: cell-based; conditions: Homo sapiens; HCT-15, 72 hours
Method: as §3

KM12 = assay: Growth inhibition assay (Cell Titer Glo), KM12; type: cell-based; conditions: Homo sapiens; KM12, 72 hours
Method: as §3

PDE9A = PDE9A (Homo sapiens, UniProt O76083); assay: Phosphodiesterase isozyme specificity, PDE9A; type: biochemical; conditions: cGMP substrate, @ 10 μM
PDE11A = PDE11A (Homo sapiens, UniProt Q9HCR9); assay: Phosphodiesterase isozyme specificity, PDE11A; type: biochemical; conditions: @ 10 μM
[6] = tested on: panel of nine human colon tumor cell lines; assay: Growth inhibition, panel of nine human colon tumor cell lines; type: cell-based; conditions: 72 hours, read-out: growth inhibition IC50 values, range over all lines
Method: as §3

PDE5 = PDE5 (Homo sapiens, UniProt O76074); assay: Phosphodiesterase isozyme specificity, PDE5; type: biochemical; conditions: PDE5, cGMP substrate
PDE4B2 = PDE4B2 (Homo sapiens, UniProt Q07343); assay: Phosphodiesterase isozyme specificity, PDE4B2; type: biochemical; conditions: PDE4B2, cAMP substrate
SW-480 colon tumor cells = assay: β-catenin nuclear translocation under Wnt3a stimulation (confocal immunofluorescence); type: cell-based, human; conditions: pre-incubation 30 minutes, Wnt3a conditioned media 5 hours
Method: Cover glass bottom 35mm tissue culture dishes were precoated with EmbryoMax 0.1% gelatin from Millipore according to manufacturer's recommendations. Cells were then plated and allowed to grow to 70-90% confluency before treatments. SW-480 cells were serum starved overnight prior to the addition of PDE10 inhibitors at the concentrations indicated. […] Briefly, Wnt3a or parental L-cells lacking Wnt3a were purchased from the ATCC and grown according to the manufacurer's recommendations. Once cells reached confluency, the media was collected and filtered before use. Conditioned media was added to SW-480 cells in order to stimulate nuclear translocation of β-catenin for 5 hours before fixation and staining. Cover glass bottom 35mm tissue culture dishes were precoated with EmbryoMax 0.1% gelatin from Millipore according to manufacturer's recommendations. Cells were then plated and allowed to grow to 70-90% confluency before treatments. Cells were fixed with 10% buffered formalin, before permeabilization with PBS containing 0.1% Trition X-100. Cells were incubated with the appropriate primary antibodies before incubation with secondary antibodies conjugated with Alexa-fluor 488 and mounted using ProLong Gold antifade reagent with DAPI (Molecular Probes-ThermoFisher Scientific). Images were acquired using a Nikon A1 Laser Scanning Confocal microscope. […]

PDE3A = PDE3A (Homo sapiens, UniProt Q14432); assay: Phosphodiesterase isozyme specificity, PDE3A; type: biochemical
HCT-116 [7] = assay: cGMP EIA assay, intracellular cGMP; type: cell-based, human; conditions: HCT-116, concentration-dependent
Method: Total levels of cGMP were measured using a competitive ELISA assay (Cayman Chemical) according to the manufacturer's recommendations. A standard curve is generated using samples of known cGMP concentrations provided with the assay and plotted using linear regression to extrapolate samples.

PDE2A = PDE2A (Homo sapiens, UniProt O00408); assay: Phosphodiesterase isozyme specificity, PDE2A; type: biochemical
[8] = tested on: HT-29 vector control cells; assay: Growth inhibition, HT-29 vector control cells; type: cell-based; conditions: Homo sapiens
Method: as §3
(§4) HT-29 PDE10 knockdown cells were generated and described previously. Briefly, lentiviral particles targeting PDE10 were produced in HEK293T cells according to the manufacturer's instruction. HT-29 cells were transduced by the lentivirus particles followed by puromycin selection (5μg/ml) for 2 weeks. Individual cell colonies stably expressing shRNA were selected and isolated in the presence of puromycin, and evaluated by western blotting previously.

HT-29 cells [9] = assay: Apoptosis, Annexin V-FITC + PI staining by FACS; type: cell-based, human; conditions: 72 hours; for cells staining positive for Annexin V: lower right quadrant; for cells staining positive for both Annexin V and PI: upper right quadrant
Method: Apoptosis was assayed using the Annexin V-FITC + PI apoptosis detection kit from Leinco Technologies according to the manufacturer's recommendations. HT-29 cells were incubated with compounds for 72 hrs at 37°C before being analyzed for apoptosis by FACS.

[10] = tested on: HT-29 PDE10 knockdown cells; assay: Growth inhibition, HT-29 PDE10 knockdown cells; type: cell-based; conditions: Homo sapiens; HT-29 PDE10 knockdown (shRNA) cells
Method: as §3, §4

[11] = HT-29, 30 minutes pretreatment in ascending concentrations, then 5 μM Pf-2545920 for 1 hour
[12] = HT-29, 10 minutes pretreatment in ascending concentrations, then 5μM Pf-2545920 for 1 hour
[13] = cAMP substrate, read-out: cAMP IC50
[14] = cGMP substrate, read-out: cGMP IC50

PDE2A, sequence (O00408 whole entry, species assumed): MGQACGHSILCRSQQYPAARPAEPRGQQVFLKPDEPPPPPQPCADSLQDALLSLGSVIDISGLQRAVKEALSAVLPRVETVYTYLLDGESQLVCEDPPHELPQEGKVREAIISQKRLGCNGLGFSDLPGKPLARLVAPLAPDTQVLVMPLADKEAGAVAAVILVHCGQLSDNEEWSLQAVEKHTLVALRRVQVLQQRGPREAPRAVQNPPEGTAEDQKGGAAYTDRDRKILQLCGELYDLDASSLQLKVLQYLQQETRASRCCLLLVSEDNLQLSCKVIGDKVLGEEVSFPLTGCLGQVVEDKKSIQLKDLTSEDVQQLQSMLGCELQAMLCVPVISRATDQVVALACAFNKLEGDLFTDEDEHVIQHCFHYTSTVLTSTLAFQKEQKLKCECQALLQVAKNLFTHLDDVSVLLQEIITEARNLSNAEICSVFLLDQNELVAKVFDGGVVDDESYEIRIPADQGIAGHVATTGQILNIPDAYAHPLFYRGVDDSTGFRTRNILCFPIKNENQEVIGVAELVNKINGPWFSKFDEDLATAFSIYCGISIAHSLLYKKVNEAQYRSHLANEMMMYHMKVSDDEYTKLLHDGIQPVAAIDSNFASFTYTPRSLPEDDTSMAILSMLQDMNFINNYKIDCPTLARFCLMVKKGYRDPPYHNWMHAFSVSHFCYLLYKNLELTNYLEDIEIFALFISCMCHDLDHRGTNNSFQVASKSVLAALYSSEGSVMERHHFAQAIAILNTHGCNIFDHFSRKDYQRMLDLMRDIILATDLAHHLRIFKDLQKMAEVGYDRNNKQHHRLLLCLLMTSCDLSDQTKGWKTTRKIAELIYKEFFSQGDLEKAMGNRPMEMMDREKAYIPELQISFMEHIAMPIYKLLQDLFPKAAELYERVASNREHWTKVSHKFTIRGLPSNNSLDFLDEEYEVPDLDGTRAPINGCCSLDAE
PDE11A, sequence (Q9HCR9 whole entry, species assumed): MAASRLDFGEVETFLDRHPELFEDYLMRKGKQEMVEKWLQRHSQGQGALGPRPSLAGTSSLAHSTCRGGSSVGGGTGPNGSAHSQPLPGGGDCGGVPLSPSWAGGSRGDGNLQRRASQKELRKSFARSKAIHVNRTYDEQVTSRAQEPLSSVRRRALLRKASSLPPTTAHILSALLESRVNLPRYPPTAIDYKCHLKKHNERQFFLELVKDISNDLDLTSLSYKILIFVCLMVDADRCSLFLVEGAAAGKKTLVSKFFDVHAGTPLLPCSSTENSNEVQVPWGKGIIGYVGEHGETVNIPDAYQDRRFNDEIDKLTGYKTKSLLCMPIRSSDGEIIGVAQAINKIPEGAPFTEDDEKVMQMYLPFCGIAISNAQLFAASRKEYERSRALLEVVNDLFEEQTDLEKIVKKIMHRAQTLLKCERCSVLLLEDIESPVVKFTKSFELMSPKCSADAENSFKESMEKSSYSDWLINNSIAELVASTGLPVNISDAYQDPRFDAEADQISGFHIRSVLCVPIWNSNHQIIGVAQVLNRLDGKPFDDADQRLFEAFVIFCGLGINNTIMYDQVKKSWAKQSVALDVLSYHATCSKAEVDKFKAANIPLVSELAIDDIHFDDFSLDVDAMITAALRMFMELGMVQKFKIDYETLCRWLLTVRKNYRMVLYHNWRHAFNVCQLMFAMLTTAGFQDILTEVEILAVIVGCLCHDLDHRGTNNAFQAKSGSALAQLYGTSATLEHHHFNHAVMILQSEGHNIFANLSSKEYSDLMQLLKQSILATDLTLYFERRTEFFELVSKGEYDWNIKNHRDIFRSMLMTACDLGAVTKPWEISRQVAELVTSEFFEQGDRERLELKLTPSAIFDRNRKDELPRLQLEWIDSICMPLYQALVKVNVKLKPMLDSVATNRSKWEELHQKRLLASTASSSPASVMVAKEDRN
PDE1A, sequence (P54750 whole entry, species assumed): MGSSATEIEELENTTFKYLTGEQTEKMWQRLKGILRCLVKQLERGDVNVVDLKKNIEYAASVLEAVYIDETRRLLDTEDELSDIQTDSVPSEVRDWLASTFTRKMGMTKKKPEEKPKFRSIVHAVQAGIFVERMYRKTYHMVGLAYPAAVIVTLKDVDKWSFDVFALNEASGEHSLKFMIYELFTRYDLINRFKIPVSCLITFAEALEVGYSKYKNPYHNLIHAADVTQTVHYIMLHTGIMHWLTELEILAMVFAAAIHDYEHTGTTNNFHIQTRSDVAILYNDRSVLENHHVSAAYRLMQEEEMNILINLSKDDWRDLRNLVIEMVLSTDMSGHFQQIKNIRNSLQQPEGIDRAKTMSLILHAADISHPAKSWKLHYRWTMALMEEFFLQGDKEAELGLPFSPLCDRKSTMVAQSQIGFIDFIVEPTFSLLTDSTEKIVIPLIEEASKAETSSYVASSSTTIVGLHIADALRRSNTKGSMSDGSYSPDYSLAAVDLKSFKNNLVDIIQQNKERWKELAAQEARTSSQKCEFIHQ
PDE3B, sequence (Q13370 whole entry, species assumed): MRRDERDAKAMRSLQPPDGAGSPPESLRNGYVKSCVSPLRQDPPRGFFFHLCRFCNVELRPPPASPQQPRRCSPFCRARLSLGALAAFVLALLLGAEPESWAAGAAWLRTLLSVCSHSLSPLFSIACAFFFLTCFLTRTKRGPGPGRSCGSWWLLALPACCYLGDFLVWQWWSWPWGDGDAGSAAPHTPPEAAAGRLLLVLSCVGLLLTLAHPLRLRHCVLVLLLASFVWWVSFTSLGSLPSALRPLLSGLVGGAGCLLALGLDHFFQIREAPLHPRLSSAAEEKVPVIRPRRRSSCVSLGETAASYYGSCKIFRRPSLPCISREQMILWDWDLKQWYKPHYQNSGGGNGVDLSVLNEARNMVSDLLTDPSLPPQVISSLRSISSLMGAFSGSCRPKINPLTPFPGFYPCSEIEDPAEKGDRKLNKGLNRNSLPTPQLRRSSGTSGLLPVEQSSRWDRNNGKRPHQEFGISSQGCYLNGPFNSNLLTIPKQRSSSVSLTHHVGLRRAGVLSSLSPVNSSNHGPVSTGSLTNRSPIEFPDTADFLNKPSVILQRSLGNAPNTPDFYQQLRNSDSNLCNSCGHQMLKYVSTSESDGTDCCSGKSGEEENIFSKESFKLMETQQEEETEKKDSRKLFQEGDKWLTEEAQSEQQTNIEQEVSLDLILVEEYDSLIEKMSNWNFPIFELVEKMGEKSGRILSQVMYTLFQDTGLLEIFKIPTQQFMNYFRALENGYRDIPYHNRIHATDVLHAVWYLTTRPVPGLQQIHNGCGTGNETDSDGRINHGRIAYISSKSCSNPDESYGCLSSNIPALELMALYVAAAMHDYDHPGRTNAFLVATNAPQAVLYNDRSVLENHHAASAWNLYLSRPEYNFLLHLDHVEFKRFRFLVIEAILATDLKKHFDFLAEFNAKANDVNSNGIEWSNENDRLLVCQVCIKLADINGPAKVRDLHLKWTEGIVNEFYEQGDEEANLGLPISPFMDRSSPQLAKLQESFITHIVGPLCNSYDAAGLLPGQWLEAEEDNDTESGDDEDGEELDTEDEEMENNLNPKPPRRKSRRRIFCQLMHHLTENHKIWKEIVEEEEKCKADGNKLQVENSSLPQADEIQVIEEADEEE
PDE3A, sequence (Q14432 whole entry, species assumed): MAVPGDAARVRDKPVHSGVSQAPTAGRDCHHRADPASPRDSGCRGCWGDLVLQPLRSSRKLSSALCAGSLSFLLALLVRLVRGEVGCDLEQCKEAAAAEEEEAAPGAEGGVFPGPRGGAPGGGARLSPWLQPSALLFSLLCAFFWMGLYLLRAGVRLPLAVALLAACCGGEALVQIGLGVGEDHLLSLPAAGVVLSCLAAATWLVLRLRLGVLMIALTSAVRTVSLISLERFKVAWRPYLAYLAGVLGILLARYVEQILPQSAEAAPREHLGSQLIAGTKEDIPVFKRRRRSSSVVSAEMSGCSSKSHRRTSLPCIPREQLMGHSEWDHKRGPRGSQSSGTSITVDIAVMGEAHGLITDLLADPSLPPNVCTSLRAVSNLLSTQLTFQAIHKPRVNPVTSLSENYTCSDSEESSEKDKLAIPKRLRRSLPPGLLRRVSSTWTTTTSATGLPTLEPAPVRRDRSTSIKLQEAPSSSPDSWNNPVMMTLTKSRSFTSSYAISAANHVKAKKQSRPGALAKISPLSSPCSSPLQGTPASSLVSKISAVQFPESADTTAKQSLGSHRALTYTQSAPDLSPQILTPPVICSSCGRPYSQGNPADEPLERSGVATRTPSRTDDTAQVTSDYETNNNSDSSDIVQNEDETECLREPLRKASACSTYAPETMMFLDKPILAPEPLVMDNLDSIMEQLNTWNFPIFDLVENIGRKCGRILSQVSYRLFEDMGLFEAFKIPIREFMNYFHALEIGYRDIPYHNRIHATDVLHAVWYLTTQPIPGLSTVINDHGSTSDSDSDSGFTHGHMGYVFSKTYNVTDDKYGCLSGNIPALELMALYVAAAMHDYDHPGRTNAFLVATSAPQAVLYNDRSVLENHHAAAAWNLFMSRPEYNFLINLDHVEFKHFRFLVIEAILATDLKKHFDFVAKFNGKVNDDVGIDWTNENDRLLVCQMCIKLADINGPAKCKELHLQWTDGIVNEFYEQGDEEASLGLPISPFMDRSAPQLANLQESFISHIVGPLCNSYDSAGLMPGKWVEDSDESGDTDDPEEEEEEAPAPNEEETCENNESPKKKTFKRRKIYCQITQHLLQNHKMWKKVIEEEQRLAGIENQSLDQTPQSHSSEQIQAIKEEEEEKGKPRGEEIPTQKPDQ

Compound: COc1ccc(C2CNC(=O)C2)cc1OC1CCCC1 (stereo not drawn) [rolipram]
- colon tumor cell growth (colon tumor cell): did not affect colon tumor cell growth

Compound: COC(=O)[C@@]1(OC)C[C@H]2O[C@]1(C)n1c3ccccc3c3c4c(c5c6ccccc6n2c5c31)C(=O)N(C)C4 [KT 5823]
- PKA activity (VASP phosphorylation at serine 157) (HT-29 cells [1]; [11]): minimally affecting the activity of PKA
- PKG activation (VASP phosphorylation at serine 239) (HT-29 cells [1]; [11]): caused a decrease in PKG activation
- apoptosis by Western blot for cleaved-PARP (HT-29 cells [2]): reduced apoptosis

Compound: O=S(=O)(NCCNC/C=C/c1ccc(Br)cc1)c1cccc2cnccc12 [H89]
- PKA activation (VASP phosphorylation at serine 157) (HT-29 cells [1]; [12]): blocks the activation of PKA in a concentration-dependent manner
- PKG activation (VASP phosphorylation at serine 239) (HT-29 cells [1]; [12]): blocking the activation of PKG, albeit at higher concentrations
- effect on sensitivity of cells to growth inhibitory activity of Pf-2545920 (HT-29 cells [3]; HT-29, 0.1μM H89 for 10 minutes before Pf-2545920 for 72 hours): had no effect on the sensitivity

- pIC50 (SW620): 4.71
- pIC50 (HCC-2998): 4.72
- pIC50 (HCT116): 4.71
- cAMP IC50 (PDE3B; cAMP substrate): Inactive @ 10 μM
- cGMP IC50 (PDE3B; cGMP substrate): Inactive @ 10 μM
- cAMP IC50 (PDE1A; cAMP substrate): Inactive @ 10 μM
- cGMP IC50 (PDE1A; cGMP substrate): Inactive @ 10 μM
- pIC50 (COLO-205): 4.73
- pIC50 (HT-29 cells [3]; HT-29, pretreated with 0.1μM H89 for 10 minutes, 72 hours): 5.32
- pIC50 (HT-29 cells [3]; HT-29, without H89, 72 hours): 5.34
- pIC50 (HCT-15): 4.84
- cGMP IC50 (PDE9A): Inactive @ 10 μM
- cAMP IC50 (PDE11A; cAMP substrate): Inactive @ 10 μM
- cGMP IC50 (PDE11A; cGMP substrate): Inactive @ 10 μM
- pIC50 [6]: 4.71 to 5.16
- pIC50 (PDE5): 5.07
- pIC50 (PDE4B2): 5.63
- pIC50 (PDE3A; [13]): < 4.30
- pIC50 (PDE3A; [14]): < 4.30
- pIC50 (PDE2A; [13]): 4.44
- pIC50 (PDE2A; [14]): < 4.30
- pIC50 [8]: 5.92
- pIC50 [10]: 4.87
Compound: Cn1cc(-c2ccncc2)c(-c2ccc(OCc3ccc4ccccc4n3)cc2)n1 [Pf-2545920, 2-[4-(1-Methyl-4-pyridin-4-yl-1H-pyrazol-3-yl)-phenoxymethyl]-quinoline]
- intracellular cAMP levels (HCT-116 [4]): increased
- phosphorylated VASP (serine 239 and serine 157) ([5]; HCT-116, 5 μM, time course up to 8 hours, time-dependent): increased the level of phosphorylated VASP
- PKG and PKA activation (phosphorylation of VASP and CREB) ([5]; HCT-116, dose response, 1 hour): activated both PKG and PKA
- cell death (fluorescence intensity) (HT-29 colon tumor cells): induces cell death in a concentration-dependent manner
- pIC50 (KM12): 5.16
- β-catenin in the nucleus (SW-480 colon tumor cells; SW-480, 10 μM): reduced the amount of β-catenin in the nucleus
- total protein levels of β-catenin (SW-480 colon tumor cells; SW-480, 25 μM): total protein levels of β-catenin are decreased
- intracellular cGMP levels (HCT-116 [7]): increased
- cells staining positive for Annexin V (HT-29 cells [9]; HT-29, 10 μM): 25.9%
- cells staining positive for both Annexin V and PI (HT-29 cells [9]; HT-29, 10 μM): 31.9%
- cells staining positive for Annexin V (HT-29 cells [9]; HT-29, 25 μM): 38.2%
- cells staining positive for both Annexin V and PI (HT-29 cells [9]; HT-29, 25 μM): 31.4%
